Assay results: ChEMBL document CHEMBL5154928, “Structure-Aided Design, Synthesis, and Biological Evaluation of Potent and Selective Non-Nucleoside Inhibitors Targeting Protein Arginine Methyltransferase 5” (J Med Chem, 2022)
pIC50: −log10 of the molar value. Active and inactive are the calls of the source. No cut-off for these calls is given here.

Key:
[1] = target: T1, Protein arginine N-methyltransferase 5 (Homo sapiens, UniProt O14744); test: Displacement of [3H]-SAM from PRMT5 (unknown origin) using peptide substrate preincubated for 15 mins followed by substrate addition for 60 mins by radioactive biochemical assay
[2] = Metabolic stability in human liver microsomes assessed as half life incubated for 10 mins measured up to 60 mins in presence of NADPH by LC-MS/MS analysis; format: ADME, Microsome
A-375 [3] = test: Antiproliferation activity against human A-375 cells assessed as cell growth inhibition incubated for 5 days by CCK-8 assay; conditions: A-375, 120 h
[4] = target: T1, Protein arginine N-methyltransferase 5; test: Displacement of [3H]-SAM from PRMT5 (unknown origin) at 10 uM using peptide substrate preincubated for 15 mins followed by substrate addition for 60 mins by radioactive biochemical assay relative to control
[5] = Clearance in mouse at 3 mg/kg, iv measured for 0.25 to 24 hrs by LC-MS/MS analysis; format: ADME, organism-based; conditions: in vivo, time 0.25-24 hrs
[6] = AUC (0 to infinity) in Sprague-Dawley rat at 10 mg/kg, po measured for 0.25 to 24 hrs by LC-MS/MS analysis; format: ADME, organism-based; design: dose 10 mg/kg, time upper 24 hrs, time lower 0.25 hrs, route po; conditions: in vivo
[7] = AUC (0 to infinity) in mouse at 3 mg/kg, iv measured for 0.25 to 24 hrs by LC-MS/MS analysis; format: ADME, organism-based; design: time upper 24 hrs, time lower 0.25 hrs, dose 3 mg/kg, route iv; conditions: in vivo
[8] = Cmax in mouse at 10 mg/kg, po measured for 0.25 to 24 hrs by LC-MS/MS analysis; format: ADME, organism-based; design: time lower 0.25 hrs, dose 10 mg/kg, time upper 24 hrs, route po; conditions: in vivo
[9] = Half life in mouse at 3 mg/kg, iv measured for 0.25 to 24 hrs by LC-MS/MS analysis; format: ADME, organism-based; conditions: in vivo, time 0.25-24 hrs
[10] = Oral bioavailability in mouse at 10 mg/kg, measured for 0.25 to 24 hrs by LC-MS/MS analysis; format: ADME, organism-based; conditions: in vivo, time 0.25-24 hrs
[11] = Half life in Sprague-Dawley rat at 10 mg/kg, po measured for 0.25 to 24 hrs by LC-MS/MS analysis; format: ADME, organism-based; conditions: in vivo, time 0.25-24 hrs
[12] = Oral bioavailability in Sprague-Dawley rat at 10 mg/kg, measured for 0.25 to 24 hrs by LC-MS/MS analysis; format: ADME, organism-based; conditions: in vivo, time 0.25-24 hrs
[13] = Cmax in Sprague-Dawley rat at 10 mg/kg, po measured for 0.25 to 24 hrs by LC-MS/MS analysis; format: ADME, organism-based; design: time lower 0.25 hrs, dose 10 mg/kg, time upper 24 hrs, route po; conditions: in vivo
[14] = Volume of distribution at steady state in mouse at 3 mg/kg, iv measured for 0.25 to 24 hrs by LC-MS/MS analysis; format: ADME, organism-based; conditions: in vivo, time 0.25-24 hrs, read-out: Vdss
SNU-423 = test: Antiproliferation activity against human SNU-423 cells assessed as cell growth inhibition incubated for 5 days by CCK-8 assay; format: functional, cell-based; conditions: dose <= 10.0 µM, time 5.0 day, DDE = dose-dependent effect
[15] = target: T1, Protein arginine N-methyltransferase 5; test: Competitive inhibition of PRMT5 (unknown origin) in presence of MTA
CHL-1 = test: Antiproliferation activity against human CHL-1 cells assessed as cell growth inhibition incubated for 5 days by CCK-8 assay; format: functional, cell-based; conditions: dose <= 10.0 µM, time 5.0 day, DDE = dose-dependent effect
MV4-11 = test: Antiproliferation activity against human MV4-11 cells assessed as cell growth inhibition incubated for 5 days by CCK-8 assay; format: functional, cell-based; conditions: dose <= 10.0 µM, time 5.0 day, DDE = dose-dependent effect
[16] = target: T1, Protein arginine N-methyltransferase 5; test: Inhibition of PRMT5 in human A-375 cells assessed as decrease in […] levels measured after 48 hrs by Western blot analysis; format: cell-based; conditions: dose 0.5-8 µM, DDE = dose-dependent effect
[17] = target: T1, Protein arginine N-methyltransferase 5; test: Competitive inhibition of PRMT5 (unknown origin) at 0.001 to 100000 nM using histone H4 (1 to 21 residues) as substrate incubated for 120 mins in presence of different concentrations of SAM by AlphaLISA assay; conditions: dose 0.001-100000 nM
A-375 [18] = test: Induction of apoptosis in human A-375 cells incubated for 48 hrs by Annexin-V FITC/PI staining based flow cytometry analysis; format: functional, cell-based; conditions: dose 0.5-4 µM, DDE = dose-dependent effect
Mus musculus [19] = test: In vivo inhibition of PRMT5 in human A-375 cells xenografted in BALB/c mouse assessed as reduction in sDMA levels in tumor tissue at 75 mg/kg, po qd for 19 days measured after 3 weeks by Western blot analysis; format: functional, organism-based; conditions: time 19.0 day
MDA-MB-453 = test: Antiproliferation activity against human MDA-MB-453 cells assessed as cell growth inhibition incubated for 5 days by CCK-8 assay; format: functional, cell-based; conditions: dose <= 10.0 µM, time 5.0 day, DDE = dose-dependent effect
MOLM-13 = test: Antiproliferation activity against human MOLM-13 cells assessed as cell growth inhibition incubated for 5 days by CCK-8 assay; format: functional, cell-based; conditions: dose <= 10.0 µM, time 5.0 day, DDE = dose-dependent effect
SNU-449 = test: Antiproliferation activity against human SNU-449 cells assessed as cell growth inhibition incubated for 5 days by CCK-8 assay; format: functional, cell-based; conditions: dose <= 10.0 µM, time 5.0 day, DDE = dose-dependent effect
MDA-MB-231 = test: Antiproliferation activity against human MDA-MB-231 cells assessed as cell growth inhibition incubated for 5 days by CCK-8 assay; format: functional, cell-based; conditions: dose <= 10.0 µM, time 5.0 day, DDE = dose-dependent effect
Mus musculus [20] = test: In vivo inhibition of PRMT5 in human A-375 cells xenografted in BALB/c mouse assessed as reduction in H4R3me2s levels in tumor tissue at 75 mg/kg, po qd for 19 days measured after 3 weeks by Western blot analysis; format: functional, organism-based; conditions: time 19.0 day
Mus musculus [21] = test: In vivo inhibition of PRMT5 in human A-375 cells xenografted in BALB/c mouse assessed as reduction in H3R8me2s levels in tumor tissue at 75 mg/kg, po qd for 19 days measured after 3 weeks by Western blot analysis; format: functional, organism-based; conditions: time 19.0 day

T1 sequence (O14744 whole entry): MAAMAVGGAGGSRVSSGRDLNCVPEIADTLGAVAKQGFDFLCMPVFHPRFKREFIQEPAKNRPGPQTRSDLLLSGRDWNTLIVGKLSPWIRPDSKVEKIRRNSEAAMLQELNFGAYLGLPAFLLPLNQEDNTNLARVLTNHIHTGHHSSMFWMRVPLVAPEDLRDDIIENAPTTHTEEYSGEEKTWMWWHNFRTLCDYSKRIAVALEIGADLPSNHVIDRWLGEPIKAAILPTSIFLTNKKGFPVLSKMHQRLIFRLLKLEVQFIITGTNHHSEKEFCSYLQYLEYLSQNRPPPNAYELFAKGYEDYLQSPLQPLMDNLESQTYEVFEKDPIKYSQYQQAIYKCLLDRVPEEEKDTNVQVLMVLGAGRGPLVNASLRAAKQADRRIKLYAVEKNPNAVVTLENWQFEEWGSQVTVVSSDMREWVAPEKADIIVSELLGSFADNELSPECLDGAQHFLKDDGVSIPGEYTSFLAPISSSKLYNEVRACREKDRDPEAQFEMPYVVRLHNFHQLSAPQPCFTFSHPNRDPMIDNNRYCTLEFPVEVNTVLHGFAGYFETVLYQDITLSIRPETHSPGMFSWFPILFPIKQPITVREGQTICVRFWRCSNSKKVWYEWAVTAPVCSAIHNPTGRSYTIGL

Compound | pIC50 [1] | pIC50 (A-375 [3]) | also measured
C1=C(c2ncnc3[nH]c(-c4ccc(OCc5ccccc5)cc4)nc23)CCNC1 | 7.85 |  | half-life [2]: 2.09 min
C[C@@H](Oc1ccc(-c2cc3c(C4=CCNCC4)ncnc3[nH]2)c(F)c1)c1ccccc1 | 6.99 | 5.19 | 
c1ccc(COc2ccc(-c3cc4c(N5CCC6(CC5)COC6)ncnc4[nH]3)cc2)cc1 | 7.29 |  | 
C[C@H](Oc1ccc(-c2cc3c(C4=CCNCC4)ncnc3[nH]2)c(F)c1)c1ccccc1 | 7.66 | 5.76 | half-life [2]: 42.3 min
Nc1ncnc2c1ccn2-c1ccc(OCc2ccccc2)cc1 |  |  | inhibition [4]: 10.5%
C[C@@H](Oc1ccc(-c2nc3c(C4=CCNCC4)ncnc3[nH]2)cc1)c1ccccc1 | 6.94 | 5.12 | 
Cn1cc(-c2ncnc3[nH]c(-c4ccc(OCc5ccccc5)cc4)cc23)cn1 | 6.93 |  | 
O=C1CN(c2ncnc3[nH]c(-c4ccc(OCc5ccccc5)cc4)cc23)CCN1 | 7.29 |  | 
C1=C(c2ncnc3[nH]c(-c4ccc(OCc5ccccc5)cc4)cc23)CCNC1 | 8.10 |  | half-life [2]: 2.99 min
Nc1ncnc2[nH]c(-c3ccc(OCc4ccccc4)cc3)cc12 | 7.08 |  | inhibition [4]: 81.9%
c1ccc(COc2ccc(-c3cc4c(NC5CCNCC5)ncnc4[nH]3)cc2)cc1 | 7.65 |  | 
C[C@@H]1CN(c2ncnc3[nH]c(-c4ccc(OCc5ccccc5)cc4)cc23)C[C@H](C)N1 | 7.66 |  | 
Nc1ncnc2c1ccn2Cc1cccc(Oc2ccccc2)c1 |  |  | inhibition [4]: 15.5%
CN(C)CCN(C)c1ncnc2[nH]c(-c3ccc(OCc4ccccc4)cc3)cc12 | 7.76 |  | 
CN1CCN(c2ncnc3[nH]c(-c4ccc(OCc5ccccc5)cc4)cc23)CC1 | 7.56 |  | 
Nc1ncnc2c1ncn2Cc1ccccc1 |  |  | inhibition [4]: 15.6%
c1ccc(COc2ccc(-c3cc4c(N5CCCNCC5)ncnc4[nH]3)cc2)cc1 | 7.98 |  | 
C[C@H](Oc1ccc(-c2cc3c(C4=CCNCC4)ncnc3[nH]2)cc1F)c1ccccc1 | 7.62 | 5.46 | half-life [2]: 56.2 min
C[C@@H](Oc1ccc(-c2nc3c(C4=CCNCC4)ncnc3[nH]2)c(F)c1)c1ccccc1 | 6.80 | 5.06 | 
C[C@@H](Oc1ccc(-c2cc3c(C4=CCNCC4)ncnc3[nH]2)cc1)c1ccccc1 | 7.32 | 5.59 | half-life [2]: 18.3 min
C[C@H](Oc1ccc(-c2cc3c(C4=CCNCC4)ncnc3[nH]2)cc1)c1ccccc1.Cl |  |  | clearance [5]: 153 mL/min/kg; AUC [6]: 205 h/ng/mL; AUC [7]: 464 h/ng/mL; Cmax [8]: 128 ng/mL; half-life [9]: 283 min; bioavailability [10]: 46.2%; half-life [11]: 177 min; bioavailability [12]: 23.7%; Cmax [13]: 27.7 ng/mL; Vd [14]: 47.7 L/kg
C[C@H](Oc1ccc(-c2nc3c(C4=CCNCC4)ncnc3[nH]2)c(F)c1)c1ccccc1 | 7.10 | 5.27 | half-life [2]: 41.3 min
Nc1ncnc2c1ccn2Cc1ccccc1 |  |  | inhibition [4]: 18.1%

Compound | pIC50 [1] | pIC50 (A-375 [3]) | also measured
CC(Oc1ccc(-c2cc3c(C4=CCNCC4)ncnc3[nH]2)cc1)c1ccccc1 (racemic) | 7.36 | 5.61 | half-life [2]: 26 min
Cc1cc(-c2cc3c(C4=CCNCC4)ncnc3[nH]2)ccc1O[C@@H](C)c1ccccc1 | 7.09 | 5.08 | half-life [2]: 56.8 min
CC1(O)CCN(c2ncnc3[nH]c(-c4ccc(OCc5ccccc5)cc4)cc23)CC1 | 7.05 |  | 
Nc1ncnc2[nH]c(-c3ccc(OCc4ccccc4)cc3)nc12 | 7.23 |  | inhibition [4]: 84.4%
C[C@H](Oc1ccc(-c2cc3c(C4=CCNCC4)ncnc3[nH]2)cc1)c1ccccc1 |  |  | Activity (SNU-423): Dde; Activity [15]: Active; Activity (CHL-1): Dde; Activity (MV4-11): Dde; inhibition [16]: Dde; Activity [17]: Active; Activity (A-375 [18]): Dde; Activity (Mus musculus [19]): Active; Activity (MDA-MB-453): Dde; Activity (MOLM-13): Dde; Activity (SNU-449): Dde; Activity (MDA-MB-231): Dde; Activity (Mus musculus [20]): Active; Activity (Mus musculus [21]): Active
Nc1ncnc2c1ncn2-c1ccc(OCc2ccccc2)cc1 |  |  | inhibition [4]: 20.2%
c1ccc(COc2ccc(-c3cc4c(N5CCNCC5)ncnc4[nH]3)cc2)cc1 | 7.94 |  | 
O=C(NC[C@H](O)CN1CCc2ccccc2C1)c1cc(NC2COC2)ncn1 |  |  | inhibition [16]: Dde
CC(Oc1ccc(-c2nc3c(C4=CCNCC4)ncnc3[nH]2)c(F)c1)c1ccccc1 (racemic) | 6.63 | 5.12 | 
Nc1ncnc2c1ccn2Cc1ccc(Oc2ccccc2)cc1 |  |  | inhibition [4]: 14.1%
C[C@H](Oc1ccc(-c2nc3c(C4=CCNCC4)ncnc3[nH]2)cc1)c1ccccc1 | 7.46 | 5.22 | half-life [2]: 70.1 min
c1ccc(COc2ccc(-c3cc4c(-c5cn[nH]c5)ncnc4[nH]3)cc2)cc1 | 6.95 |  | 
CCN1CCN(c2ncnc3[nH]c(-c4ccc(OCc5ccccc5)cc4)cc23)CC1 | 7.15 |  | 
COc1cc(O[C@@H](C)c2ccccc2)ccc1-c1cc2c(C3=CCNCC3)ncnc2[nH]1 | 6.71 | 5.10 | 
CC(Oc1ccc(-c2nc3c(C4=CCNCC4)ncnc3[nH]2)cc1)c1ccccc1 (racemic) | 7.43 | 5.14 | 
c1ccc(COc2ccc(-c3nc4c(N5CCOCC5)ncnc4[nH]3)cc2)cc1 | 7.35 |  | 
c1ccc(COc2ccc(-c3cc4c(N5CCN(C6COC6)CC5)ncnc4[nH]3)cc2)cc1 | 7.40 |  | 
CC(Oc1ccc(-c2cc3c(C4=CCNCC4)ncnc3[nH]2)c(F)c1)c1ccccc1 (racemic) | 7.52 | 5.34 | 
c1ccc(COc2ccc(-c3nc4c(N5CCNCC5)ncnc4[nH]3)cc2)cc1 | 7.94 |  | 
c1ccc(COc2ccc(-c3cc4c(N5CCOCC5)ncnc4[nH]3)cc2)cc1 | 7.26 |  | 
CN1CCCN(c2ncnc3[nH]c(-c4ccc(OCc5ccccc5)cc4)cc23)CC1 | 7.78 |  | 
Cc1cc(O[C@@H](C)c2ccccc2)ccc1-c1cc2c(C3=CCNCC3)ncnc2[nH]1 | 7.48 | 5.47 | half-life [2]: 47.3 min
